Where two headings read alike, the source gives them in different places.
How the values were obtained:
HIV-1NL4-3 = test: HIV-1 infectivity assay in TZM-bl reporter cell line (LTR-luciferase, 48 h); type: cell-based; conditions: for inhibition at 1 µM: Human immunodeficiency virus 1, TZM-bl
Procedure: (§1) In particular, the tables show antiretroviral activity as percent inhibition of HIV-1 infectivity at 1 μM. In brief, this assay uses the TZM-bl reporter cell line, which carries a stable copy of the HIV-1 LTR coupled to luciferase. Cells are infected with HIV-1NL4-3 in the presence and absence of each compound, and luciferase activity is measured 48 h later. This assay measures early events in the HIV-1 life cycle, including viral entry, reverse transcription, nuclear entry and integration, and viral transcription. All assays include control cells infected with Nef-defective HIV-1, which replicates at 30-50% of wild-type in this system. Results are normalized to percent inhibition relative to DMSO-treated control cells infected with wild-type HIV-1 (0% inhibition) and DMSO-treated cells infected with Nef-defective HIV-1 (100% of the Nef-dependent effect)—see column 3. In addition, cell viability is measured in the TZM-bl cell line in the presence of each test compound and in the absence of HIV-1 infection, using the Cell Titer Blue cell viability assay (Promega; column 4).

TZM-bl cell line = type: cell-based
Procedure: as §1

HIV-1 NefNL4-3 = HIV-1 NefNL4-3 (Human immunodeficiency virus type 1 group M subtype B, UniProt P03406, A33V/T15A/T51N/V11I); test: Surface plasmon resonance binding to recombinant full-length Nef (NL4-3); conditions: for RU30/RUNef (extent of binding): response units at 30 μM relative to Nef immobilized on the SPR chip
[1] = 1.0 μM, TZM-bl reporter cell line, Table 4, read-out: % Infectivity Inhibition
[2] = 48 h, Table 1, TZM-bl cells, 1 μM, 48 h, 100% = Nef-defective HIV-1, read-out: HIV-1 Infectivity % Inhibition Norm. to Δ-Nef @ 1 μM
[3] = KD, M, Table 4, SPR fit 2-step induced fit, KD = koff/kon × koff2/(koff2 + kon2)
[4] = Nef NL4-3 Binding, SPR 2-state fitting KD, Table 1, 2-step induced-fit model
[5] = Table 4, 2-step induced fit, T = 1/koff2
[6] = read-out: Nef NL4-3 Binding, SPR 1:1 or 2-site fitting KD2, Table 1, 2-site fit, second component
[7] = KD, M, Table 4, SPR fit 1:1 Langmuir, KD = koff/kon
[8] = Table 4, 1:1 Langmuir fit, T = 1/koff
[9] = Table 1, 1:1 Langmuir fit where the KD2 cell says '1 to 1 fitting', else 2-site fit
[10] = Nef NL4-3 Binding, SPR 1:1 or 2-site fitting KD2, Table 1, 2-site fit, second component
[11] = Table 1, TZM-bl cells, 1 μM, 48 h, 100% = Nef-defective HIV-1
[12] = Table 1, uninfected TZM-bl cells, 1 μM, Cell Titer Blue
[13] = Table 1, 1:1 Langmuir fit where the KD2 cell says '1 to 1 fitting', else 2-site fit, read-out: Nef NL4-3 Binding, SPR 1:1 or 2-site fitting KD1

| SMILES | inhibition at 1 µM (HIV-1NL4-3; [1]) | inhibition at 1 µM (HIV-1NL4-3; [2]) | % Cell Viability (TZM-bl cell line; human, 1 μM) | Percent Viability @ 1 μM (TZM-bl cells) (TZM-bl cell line; human, 1 μM) | Kd (HIV-1 NefNL4-3) | Kd (HIV-1 NefNL4-3; [3]) | Kd (HIV-1 NefNL4-3; [4]) | T, minutes (residence time) (HIV-1 NefNL4-3; [5]) | RU30/RUNef (extent of binding) (HIV-1 NefNL4-3) | also measured |
| --- | --- | --- | --- | --- | --- | --- | --- | --- | --- | --- |
| CC(C)(C)OC(=O)N1C[C@@H]2[C@H](C1)[C@H]2c1nn(-c2nc3ccccc3[nH]2)c(O)c1CCc1ccc(F)cc1 [Compound I-209, tert-butyl 6-[1-(1H-1,3-benzodiazol-2-yl)-4-[2-(4-fluorophenyl)ethyl]-5-hydroxy-1H-pyrazol-3-yl]-3-azabicyclo[3.1.0]hexane-3-carboxylate] | 4.2% | 4.2% | 100% | 100.1% | 776 nM | 4830 nM | 5830 nM | 3.81E- 01 minutes | 8.59E- 03 |  |
| O=C1CN(Cc2nn(-c3nc4ccccc4[nH]3)c(O)c2CCc2ccc(F)cc2)CCN1c1ccccc1 [Compound I-155, 4-{[1-(1H-1,3-benzodiazol-2-yl)-4-[2-(4-fluorophenyl)ethyl]-5-hydroxy-1H-pyrazol-3-yl]methyl}-1-phenylpiperazin-2-one] |  | -5.9% |  | 98.2% | 3400 nM |  |  |  |  |  |
| CC(C)(C)c1nn(-c2nc3ccccc3[nH]2)c(O)c1CCc1ccc(F)cc1 [Compound I-130, 1-(1H-1,3-benzodiazol-2-yl)-3-tert-butyl-4-[2-(4-fluorophenyl)ethyl]-1H-pyrazol-5-ol] | 43.6% | 43.6% | 98.7% | 98.7% | 702 nM | 3800 nM | 3800 nM | 1.15E + 01 minutes | 9.49E- 03 | Kd (HIV-1 NefNL4-3; [6]): 13000 nM |
| Oc1c(CC2CCOCC2)c(C2CC2)nn1-c1cc(C(F)(F)F)n[nH]1 [Compound I-622, 3-cyclopropyl-4-[(oxan-4-yl)methyl]-5′-(trifluoromethyl)-2′H-[1,3′-bipyrazol]-5-ol] |  |  |  | 98.5% |  |  |  |  |  | inhibition at 1 µM (HIV-1NL4-3; 48 h, Table 2, TZM-bl cells, 1 μM, 48 h, 100% = Nef-defective HIV-1, read-out: HIV-1 Infectivity % Inhibition Norm. to Δ-Nef @ 1 μM): 4.9%; Nef NL4-3 Binding, SPR 1:1 or 2-site fitting KD1 (HIV-1 NefNL4-3; Table 2, 1:1 Langmuir fit where the KD2 cell says '1 to 1 fitting', else 2-site fit): No interaction |
| CS(=O)(=O)N1CCC(CCc2c(-c3ccc(C(F)(F)F)cn3)nn(-c3nc4cc(Br)ccc4[nH]3)c2O)CC1 [Compound I-775, 1-(5-bromo-1H-1,3-benzodiazol-2-yl)-4-[2-(1-methanesulfonylpiperidin-4-yl)ethyl]-3-[5-(trifluoromethyl)pyridin-2-yl]-1H-pyrazol-5-ol] | 62.1% | 62.1% | 72.9% | 72.9% | 316 nM |  |  |  | 1.62E- 03 | Kd (HIV-1 NefNL4-3; [7]): 316 nM; T, minutes (residence time) (HIV-1 NefNL4-3; [8]): 4.26E + 01 minutes |
| O=C1NC(=O)C(CC(=O)N2CCC(c3nn(-c4nc5ccccc5[nH]4)c(O)c3CCc3ccc(F)cc3)CC2)N1 (centres unmarked) [Compound I-738, 5-(2-{4-[1-(1H-1,3-benzodiazol-2-yl)-4-[2-(4-fluorophenyl)ethyl]-5-hydroxy-1H-pyrazol-3-yl]piperidin-1-yl}-2-oxoethyl)imidazolidine-2,4-dione] |  | -9.9% |  | 100.4% |  |  |  |  |  | Nef NL4-3 Binding, SPR 1:1 or 2-site fitting KD1 (HIV-1 NefNL4-3; [9]): No Interaction |
| O=C(c1nn(-c2nc3ccccc3[nH]2)c(O)c1CCc1ccc(F)cc1)N1CCCCC1 [Compound I-406, 1-(1H-1,3-benzodiazol-2-yl)-4-[2-(4-fluorophenyl)ethyl]-3-(piperidine-1-carbonyl)-1H-pyrazol-5-ol] | 0% | -4.4% | 100% | 109.7% | 549 nM | 2670 nM | 2670 nM | 2.85E + 00 minutes | 7.13E- 03 | Kd (HIV-1 NefNL4-3; [10]): 1230 nM |
| CC(C)(C)OC(=O)NC1(c2nn(-c3nc4ccccc4[nH]3)c(O)c2CCc2ccc(F)cc2)CCOCC1 [Compound I-213, tert-butyl N-{4-[1-(1H-l,3-benzodiazol-2-yl)-4-[2-(4-fluorophenyl)ethyl]-5-hydroxy-1H-pyrazol-3-yl]oxan-4-yl}carbamate] |  |  |  |  |  |  |  |  |  | HIV-1 Infectivity % Inhibition Norm. to Δ-Nef @ 1 μM (HIV-1NL4-3; [11]): −4.6%; Percent Viability @ 1 μM (TZM-bl cells) (TZM-bl cell line; [12]): 97.6%; Kd (HIV-1 NefNL4-3; [13]): 1600 nM |
| Oc1c(CCc2ccc(F)cc2)c(-c2cncc(Br)c2)nn1-c1nc2ccccc2[nH]1 [Compound I-118, 1-(1H-1,3-benzodiazol-2-yl)-3-(5-bromopyridin-3-yl)-4-[2-(4-fluorophenyl)ethyl]-1H-pyrazol-5-ol] |  | 101% |  | 81.6% | 95.6 nM |  | 0.216 nM |  |  | Kd (HIV-1 NefNL4-3; [6]): 17100 nM |
| CC[C@H](C)[C@H](O)C(=O)N1CCC(c2nn(-c3nc4ccccc4[nH]3)c(O)c2CCc2ccc(F)cc2)CC1 [Compound I-732, (2S,3S)-1-{4-[1-(1H-1,3-benzodiazol-2-yl)-4-[2-(4-fluorophenyl)ethyl]-5-hydroxy-1H-pyrazol-3-yl]piperidin-1-yl}-2-hydroxy-3-methylpentan-1-one] | 85.5% | 85.5% | 91.0% | 91.0% | 630 nM | 4210 nM | 4210 nM | 3.78E + 00 minutes | 3.09E- 03 | Kd (HIV-1 NefNL4-3; [10]): 1770 nM |
| Oc1c(CC2CCOCC2)c(C2CCOCC2)nn1-c1nc2cccnc2[nH]1 [Compound I-312, 1-{3H-imidazo[4,5-b]pyridin-2-yl}-3-(oxan-4-yl)-4-[(oxan-4-yl)methyl]-1H-pyrazol-5-ol] |  | -33.7% |  | 100.1% |  |  |  |  |  | Nef NL4-3 Binding, SPR 1:1 or 2-site fitting KD1 (HIV-1 NefNL4-3; [9]): No Interaction |
| Oc1c(CC2CCOCC2)c(CCC2CCOCC2)nn1-c1nc2ccccc2[nH]1 [Compound I-178, 1-(1H-1,3-benzodiazol-2-yl)-3-[2-(oxan-4-yl)ethyl]-4-[(oxan-4-yl)methyl]-1H-pyrazol-5-ol] | 0% |  | 97.9% |  |  | 10900 nM |  | 7.72E + 00 minutes | 8.86E- 03 |  |
| O=C(C1CCC(O)CC1)N1CCC(c2nn(-c3nc4ccccc4[nH]3)c(O)c2CCc2ccc(F)cc2)CC1 (centres unmarked) [Compound I-735, 1-(1H-1,3-benzodiazol-2-yl)-4-[2-(4-fluorophenyl)ethyl]-3-[1-(4-hydroxycyclohexanecarbonyl)piperidin-4-yl]-1H-pyrazol-5-ol] | 38.8% | 38.8% | 96.9% | 96.9% | 46.9 nM | 0.498 nM | 0.498 nM | 6.44E + 03 minutes | 6.53E- 03 | Kd (HIV-1 NefNL4-3; [6]): 2800 nM |
| Oc1c(CCc2ccc(F)cc2)c(CCCc2ccc(F)cc2)nn1-c1nc2cccnc2[nH]1 [Compound I-307, 4-[2-(4-fluorophenyl)ethyl]-3-[3-(4-fluorophenyl)propyl]-1-{3H-imidazo[4,5-b]pyridin-2-yl}-1H-pyrazol-5-ol] | 47.5% | 47.5% | 98.2% | 98.2% | 890 nM |  |  |  | 6.84E- 03 | Kd (HIV-1 NefNL4-3; [7]): 890 nM; T, minutes (residence time) (HIV-1 NefNL4-3; [8]): 1.14E + 01 minutes |
| O=C(COCc1ccncc1)N1CCC(Cc2nn(-c3nc4ccccc4[nH]3)c(O)c2CCc2ccc(F)cc2)CC1 [Compound I-769, 1-(4-{[1-(1H-1,3-benzodiazol-2-yl)-4-[2-(4-fluorophenyl)ethyl]-5-hydroxy-1H-pyrazol-3-yl]methyl}piperidin-1-yl)-2-[(pyridin-4-yl)methoxy]ethan-1-one] |  |  |  |  |  |  |  |  | 4.88E- 03 | % Infectivity Inhibition (HIV-1NL4-3; 1.0 μM, TZM-bl reporter cell line, Table 4): 26.5%; HIV-1 Infectivity % Inhibition Norm. to Δ-Nef @ 1 μM (HIV-1NL4-3; [11]): 26.5%; % Cell Viability (TZM-bl cell line; 1.0 μM, uninfected TZM-bl, CellTiter-Blue, Table 4): 98.8%; Percent Viability @ 1 μM (TZM-bl cells) (TZM-bl cell line; [12]): 98.8%; Kd (HIV-1 NefNL4-3; [13]): 798 nM; T, minutes (residence time) (HIV-1 NefNL4-3; [8]): 9.47E + 00 minutes; Kd (HIV-1 NefNL4-3; Table 4, SPR fit 1:1 Langmuir, KD = koff/kon, read-out: KD): 798 nM |

Reference: patent publication US20220380341A1, “INHIBITORS OF HIV-1 NEF FOR THE TREATMENT OF HIV DISEASE” (priority 2018, published 2022)
